Laboratory results taken from the supplement of paper PMC6045584.
± gives the standard deviation of the averaged measurements.

How the values were obtained:
17-AAG = compound: C=CCNC1=C2C[C@@H](C)C[C@H](OC)[C@H](O)[C@@H](C)/C=C(\C)[C@H](OC(N)=O)[C@@H](OC)/C=C\C=C(/C)C(=O)NC(=CC1=O)C2=O [17-AAG]; experiment: surviving fraction relative to DMSO-only wells; higher = less growth inhibition; details: exposure time: 5 days
How it was run: (§1)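 Log-phase tumour cell lines, 250–500 cells per well in 384-well plates, received inhibitors at 0.5, 1, 5, 10, 50, 100, 500 and 1000 nM continuously for five days, starting 24 hours after seeding. Viability was quantified with CellTiter-Glo luminescence and normalised to the median of DMSO-only wells to give surviving fraction. Three screens were run per line, and a line stayed in only with replicate Pearson r >0.7 and median Z' >0.3.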

2-METHOXYESTRADIOL = compound: COc1cc2c(cc1O)CC[C@@H]1[C@@H]2CC[C@]2(C)[C@@H](O)CC[C@@H]12 [2-METHOXYESTRADIOL]; experiment: as above; details: exposure time: 5 days
How it was run: as §1

Test System | surviving fraction (17-AAG; 0.5 nM) | surviving fraction (17-AAG; 1 nM) | surviving fraction (17-AAG; 5 nM) | surviving fraction (17-AAG; 10 nM) | surviving fraction (17-AAG; 50 nM) | surviving fraction (17-AAG; 100 nM) | surviving fraction (17-AAG; 500 nM) | surviving fraction (17-AAG; 1000 nM) | surviving fraction (2-METHOXYESTRADIOL; 0.5 nM) | surviving fraction (2-METHOXYESTRADIOL; 1 nM) | surviving fraction (2-METHOXYESTRADIOL; 5 nM) | surviving fraction (2-METHOXYESTRADIOL; 10 nM) | surviving fraction (2-METHOXYESTRADIOL; 50 nM) | surviving fraction (2-METHOXYESTRADIOL; 100 nM) | surviving fraction (2-METHOXYESTRADIOL; 500 nM) | surviving fraction (2-METHOXYESTRADIOL; 1000 nM)
SUM44 BREAST | 0.897 ± 0.02 | 0.863 ± 0.051 | 0.759 ± 0.026 | 0.522 ± 0.026 | 0.539 ± 0.021 | 0.494 ± 0.014 | 0.456 ± 0.017 | 0.464 ± 0.012 | 1.14 ± 0.32 | 1.15 ± 0.3 | 1.14 ± 0.23 | 1.12 ± 0.2 | 1.3 ± 0.4 | 1.21 ± 0.33 | 0.837 ± 0.091 | 0.53 ± 0.054
MDAMB134 BREAST | 0.609 ± 0.036 | 0.648 ± 0.053 | 0.573 ± 0.066 | 0.667 ± 0.051 | 0.574 ± 0.018 | 0.519 ± 0.011 | 0.524 ± 0.012 | 0.47 ± 0.018 | 0.832 ± 0.24 | 0.884 ± 0.12 | 0.777 ± 0.041 | 0.916 ± 0.18 | 0.755 ± 0.097 | 0.717 ± 0.12 | 0.56 ± 0.0085 | 0.619 ± 0.15
MHM BONE | 0.973 ± 0.016 | 0.966 ± 0.026 | 0.987 ± 0.043 | 1.019 ± 0.0027 | 1.04 ± 0.02 | 0.912 ± 0.048 | 0.262 ± 0.023 | 0.184 ± 0.0051 | 1.02 ± 0.035 | 1.01 ± 0.033 | 1.04 ± 0.049 | 1.03 ± 0.05 | 1.04 ± 0.029 | 1.03 ± 0.045 | 0.975 ± 0.015 | 0.673 ± 0.048
HCT15 LARGE INTESTINE | 0.858 ± 0.04 | 0.852 ± 0.011 | 0.864 ± 0.029 | 0.792 ± 0.078 | 0.479 ± 0.0076 | 0.264 ± 0.0079 | 0.072 ± 0.0027 | 0.0573 ± 0.0025 | 0.947 ± 0.027 | 0.926 ± 0.028 | 0.959 ± 0.057 | 0.914 ± 0.04 | 1.01 ± 0.021 | 0.929 ± 0.1 | 0.0957 ± 0.014 | 0.0547 ± 0.0085
VCAP PROSTATE | 0.94 ± 0.075 | 0.969 ± 0.054 | 1.12 ± 0.17 | 1.03 ± 0.12 | 0.683 ± 0.066 | 0.19 ± 0.018 | 0.167 ± 0.016 | 0.183 ± 0.03 | 1.01 ± 0.05 | 0.983 ± 0.13 | 0.919 ± 0.054 | 1.1 ± 0.08 | 0.999 ± 0.075 | 1.06 ± 0.043 | 0.777 ± 0.069 | 0.231 ± 0.059
HCC78 LUNG | 0.814 ± 0.2 | 0.832 ± 0.067 | 0.961 ± 0.12 | 0.511 ± 0.097 | 0.0943 ± 0.0025 | 0.086 ± 0.011 | 0.053 ± 0.013 | 0.0667 ± 0.0021 | 0.781 ± 0.22 | 0.786 ± 0.076 | 0.866 ± 0.094 | 1.02 ± 0.24 | 0.827 ± 0.14 | 0.759 ± 0.14 | 0.298 ± 0.087 | 0.0893 ± 0.036
SUM149.B1*.S BREAST | 0.9335 ± 0.0026 | 0.893 ± 0.032 | 0.905 ± 0.038 | 0.83 ± 0.017 | 0.201 ± 0.021 | 0.131 ± 0.018 | 0.083 ± 0.019 | 0.0832 ± 0.014 | 1.04 ± 0.011 | 1.02 ± 0.046 | 1.02 ± 0.025 | 1.02 ± 0.04 | 1.06 ± 0.025 | 1.08 ± 0.019 | 0.968 ± 0.015 | 0.628 ± 0.036
NY BONE | 0.9133 ± 0.0047 | 0.924 ± 0.024 | 0.975 ± 0.0089 | 0.771 ± 0.054 | 0.0967 ± 0.0049 | 0.11 ± 0.0063 | 0.068 ± 0.0046 | 0.0527 ± 0.0045 | 0.95 ± 0.026 | 0.952 ± 0.014 | 0.983 ± 0.021 | 0.994 ± 0.017 | 1.03 ± 0.018 | 1 ± 0.031 | 0.106 ± 0.0015 | 0.057 ± 0.0036
CHLA90 AUTONOMIC GANGLIA | 0.927 ± 0.033 | 0.941 ± 0.023 | 0.912 ± 0.055 | 0.889 ± 0.037 | 0.476 ± 0.012 | 0.32 ± 0.018 | 0.175 ± 0.0084 | 0.143 ± 0.0023 | 0.969 ± 0.059 | 0.89 ± 0.077 | 0.879 ± 0.074 | 0.888 ± 0.022 | 0.997 ± 0.047 | 0.998 ± 0.029 | 0.896 ± 0.08 | 0.663 ± 0.005
SAOS2 BONE | 0.829 ± 0.046 | 0.775 ± 0.01 | 0.859 ± 0.099 | 0.77 ± 0.073 | 0.215 ± 0.031 | 0.0823 ± 0.004 | 0.069 ± 0.0087 | 0.0783 ± 0.0058 | 1.09 ± 0.099 | 1.16 ± 0.065 | 1.17 ± 0.019 | 1.17 ± 0.05 | 1.28 ± 0.21 | 1.22 ± 0.051 | 0.769 ± 0.076 | 0.272 ± 0.013
SNU475 LIVER | 0.864 ± 0.017 | 0.884 ± 0.013 | 0.792 ± 0.036 | 0.418 ± 0.062 | 0.259 ± 0.02 | 0.234 ± 0.0059 | 0.248 ± 0.013 | 0.23 ± 0.029 | 0.989 ± 0.048 | 1.01 ± 0.032 | 0.967 ± 0.026 | 0.968 ± 0.06 | 1.02 ± 0.053 | 0.997 ± 0.059 | 0.956 ± 0.057 | 0.775 ± 0.051
HSSYII SYNOVIAL | 0.869 ± 0.049 | 0.812 ± 0.035 | 0.888 ± 0.045 | 0.868 ± 0.022 | 0.764 ± 0.039 | 0.519 ± 0.017 | 0.122 ± 0.0035 | 0.114 ± 0.0093 | 0.901 ± 0.024 | 0.926 ± 0.01 | 0.923 ± 0.043 | 0.997 ± 0.046 | 0.915 ± 0.018 | 0.764 ± 0.013 | 0.139 ± 0.0043 | 0.0593 ± 0.0049
LNCAP PROSTATE | 1.15 ± 0.1 | 1.14 ± 0.025 | 0.769 ± 0.12 | 0.359 ± 0.028 | 0.114 ± 0.009 | 0.0687 ± 0.012 | 0.0517 ± 0.0021 | 0.0523 ± 0.0064 | 1.01 ± 0.039 | 0.922 ± 0.039 | 0.975 ± 0.094 | 0.901 ± 0.092 | 0.884 ± 0.13 | 0.809 ± 0.091 | 0.681 ± 0.033 | 0.208 ± 0.0072
SCC90 HEADNECK | 0.866 ± 0.0092 | 0.923 ± 0.12 | 1 ± 0.11 | 0.862 ± 0.079 | 0.793 ± 0.039 | 0.423 ± 0.064 | 0.206 ± 0.042 | 0.0677 ± 0.013 | 0.927 ± 0.058 | 0.721 ± 0.076 | 1.02 ± 0.1 | 0.923 ± 0.12 | 1 ± 0.1 | 0.875 ± 0.099 | 0.185 ± 0.017 | 0.102 ± 0.013
HOSMNG BONE | 0.981 ± 0.039 | 0.977 ± 0.072 | 0.972 ± 0.051 | 0.978 ± 0.068 | 1.08 ± 0.028 | 0.506 ± 0.014 | 0.14 ± 0.014 | 0.11 ± 0.0031 | 0.97 ± 0.12 | 0.966 ± 0.034 | 0.957 ± 0.1 | 1 ± 0.046 | 1.05 ± 0.11 | 1.03 ± 0.084 | 0.652 ± 0.053 | 0.168 ± 0.011
JURKAT HAEMATOPOIETIC AND LYMPHOID TISSUE | 1.02 ± 0.014 | 0.997 ± 0.037 | 1 ± 0.023 | 0.998 ± 0.014 | 0.951 ± 0.032 | 0.886 ± 0.021 | 0.132 ± 0.0082 | 0.0577 ± 0.0015 | 1.08 ± 0.021 | 1.08 ± 0.014 | 1.03 ± 0.005 | 1.02 ± 0.033 | 1.02 ± 0.032 | 0.993 ± 0.016 | 0.043 ± 0.001 | 0.042 ± 0.001
143B BONE | 0.985 ± 0.047 | 0.992 ± 0.063 | 1.02 ± 0.029 | 0.965 ± 0.021 | 0.651 ± 0.011 | 0.271 ± 0.0071 | 0.0855 ± 0.00071 | 0.0855 ± 0.00071 | 1.04 ± 0.049 | 1.06 ± 0.054 | 1.1 ± 0.071 | 1.09 ± 0.073 | 1.08 ± 0.071 | 1.09 ± 0.046 | 0.536 ± 0.069 | 0.159 ± 0.016
